Reference: PubChem BioAssay (NCI)
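Interpolation was linear, between the two tested concentrations surrounding the appropriate level; five concentrations were tested over 48 hours in 96-well plates. Abbreviation: GI50, concentration required for 50% inhibition of growth. Definition used: TGI = concentration required for complete inhibition of growth.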

Columns and labels:
Experiment in all cases: growth of human tumour cells (NCI), 48 h
HCT-15 colon = test system: HCT-15 colon
KM12 colon = test system: KM12 colon
M14 melanoma = test system: M14 melanoma
MDA-MB-231 breast = test system: MDA-MB-231 breast
MOLT-4 leukemia = test system: MOLT-4 leukemia
OVCAR-4 ovarian = test system: OVCAR-4 ovarian
PC-3 prostate = test system: PC-3 prostate
RPMI-8226 leukemia = test system: RPMI-8226 leukemia
SK-MEL-2 melanoma = test system: SK-MEL-2 melanoma
BT-549 breast = test system: BT-549 breast

Row | Compound | TGI (HCT-15 colon) | TGI (KM12 colon) | TGI (M14 melanoma) | TGI (MDA-MB-231 breast) | TGI (MOLT-4 leukemia) | TGI (OVCAR-4 ovarian) | TGI (PC-3 prostate) | TGI (RPMI-8226 leukemia) | TGI (SK-MEL-2 melanoma) | TGI (BT-549 breast) | GI50 (BT-549 breast) | GI50 (HCT-15 colon) | GI50 (KM12 colon) | GI50 (M14 melanoma) | GI50 (MDA-MB-231 breast) | GI50 (OVCAR-4 ovarian) | GI50 (PC-3 prostate) | GI50 (RPMI-8226 leukemia) | GI50 (SK-MEL-2 melanoma) | GI50 (MOLT-4 leukemia)
1 | CC(C)[Si](CC1=CCCCC12C(=O)N(COCC[Si](C)(C)C)c1ccccc12)(C(C)C)C(C)C (stereo not given) | > 100 µM | > 100 µM | > 100 µM | > 100 µM | > 100 µM | > 100 µM | > 100 µM | > 100 µM | > 100 µM | – | – | – | – | – | – | – | – | – | – | –
2 | Cc1nc2c(ccc3[nH]c4ccccc4c32)s1 | 51.9 µM | 56.5 µM | 50.2 µM | 36.4 µM | 86.2 µM | > 100 µM | 47.9 µM | – | 54.7 µM | 57.3 µM | – | – | – | – | – | – | – | – | – | –
3 | O=[N+]([O-])c1ccc(N/N=C\c2ccc(O)cc2O)nc1 | > 100 µM | > 100 µM | 4.85 µM | > 100 µM | – | > 100 µM | > 100 µM | > 100 µM | > 100 µM | > 100 µM | 6.06 µM | 0.828 µM | 1.91 µM | 1.44 µM | 2.1 µM | 1.11 µM | 5.73 µM | 4.21 µM | 5.21 µM | –
4 | O=C1OCC(CN2CCC(n3c(=O)[nH]c4ccccc43)CC2)=C1c1ccccc1 | 54.9 µM | 31.2 µM | 33.4 µM | 79.3 µM | 60 µM | 39.6 µM | 41.6 µM | 56.1 µM | 38.1 µM | – | – | – | – | – | – | – | – | – | – | –
5 | FC1(F)SC2CCCCCCCCCCC2C1(F)F (stereo not given) | > 100 µM | – | > 100 µM | > 100 µM | > 100 µM | > 100 µM | > 100 µM | > 100 µM | 39.3 µM | > 100 µM | – | – | – | – | – | – | – | – | – | –
6 | COc1cc(/C=C2\CCCC3=C2N=C2SC=NN2C3c2cc(OC)c(OC)c(OC)c2)cc(OC)c1OC (stereo not given) | 5.91 µM | – | 7.1 µM | > 100 µM | – | – | > 100 µM | – | > 100 µM | – | – | 2.25 µM | – | 2.4 µM | 4.95 µM | – | 3.1 µM | – | 3.46 µM | 3.06 µM
7 | CN(C)CCNc1nc2c(c(=O)n(C)c(=O)n2C)n1C | > 100 µM | > 100 µM | > 100 µM | > 100 µM | > 100 µM | > 100 µM | – | > 100 µM | – | > 100 µM | – | – | – | – | – | – | – | – | – | –
8 | NC(=O)NC(=O)c1cccc(C(=O)NC(N)=O)n1 | > 100 µM | > 100 µM | > 100 µM | > 100 µM | > 100 µM | > 100 µM | > 100 µM | > 100 µM | > 100 µM | – | – | – | – | – | – | – | – | – | – | –
9 | CCOC(=O)C(/C=N/C(N)=S)=C(/O)c1ccccc1 | > 100 µM | > 100 µM | > 100 µM | > 100 µM | > 100 µM | > 100 µM | – | – | > 100 µM | > 100 µM | – | – | – | – | – | – | – | – | – | –
10 | CN(C)C=Nc1cccc2c1NSN2 | > 100 µM | > 100 µM | > 100 µM | > 100 µM | > 100 µM | > 100 µM | > 100 µM | > 100 µM | > 100 µM | – | – | – | – | – | – | – | – | – | – | –
11 | Cc1ccc(S(=O)(=O)N/N=C2/C3CC4CCC2C4C3)cc1 (stereo not given) | > 100 µM | > 100 µM | > 100 µM | > 100 µM | – | > 100 µM | > 100 µM | > 100 µM | – | > 100 µM | – | – | – | – | – | – | – | – | – | –
12 | Cc1cc(NS(=O)(=O)c2ccc(N=Nc3c(Nc4ccccc4)nn(-c4ccc(S(=O)(=O)Nc5ccncn5)cc4)c3C)cc2)no1 | > 100 µM | > 100 µM | > 100 µM | > 100 µM | > 100 µM | > 100 µM | > 100 µM | – | > 100 µM | – | – | – | – | – | – | – | – | – | – | –
13 | COC(=O)Cc1c(-c2c(CC(=O)OC)c3ccccc3n2C2OC(COC3OC(COC(C)=O)C(OC(C)=O)C(OC(C)=O)C3OC(C)=O)C(O)C(O)C2O)[nH]c2ccccc12 (stereo not given) | > 100 µM | – | > 100 µM | > 100 µM | > 100 µM | – | > 100 µM | > 100 µM | 64.7 µM | > 100 µM | – | – | – | – | – | – | – | – | – | –
14 | CSc1nc(NC2OC(CO)C(O)C(O)C2O)c(N)c(=O)[nH]1 (stereo not given) | > 100 µM | > 100 µM | – | – | > 100 µM | > 100 µM | – | > 100 µM | > 100 µM | – | – | – | – | – | – | – | – | – | – | –
15 | COC(=O)C(Cc1cc(OC)c(OC)c(OC)c1)(NC(=O)c1ccccc1)P(=O)(OC)OC (stereo not given) | > 100 µM | > 100 µM | > 100 µM | – | > 100 µM | > 100 µM | – | > 100 µM | > 100 µM | – | – | – | – | – | – | – | – | – | – | –
16 | COc1ccc(Nc2cnc3cc(N)ccc3n2)cc1OC | > 100 µM | > 100 µM | > 100 µM | – | > 100 µM | – | – | 86.2 µM | > 100 µM | – | – | – | – | – | – | – | – | – | – | –
17 | CCOC1=NC(C(F)(F)F)(C(F)(F)F)N=C(/N=C(/N)N(C)C(C(C)C)P(=O)(OC(C)C)OC(C)C)O1 (stereo not given) | > 100 µM | > 100 µM | > 100 µM | > 100 µM | 51.4 µM | – | > 100 µM | > 100 µM | > 100 µM | > 100 µM | – | – | – | – | – | – | – | – | – | –
18 | Cc1c(OCc2cccc3ccccc23)ccc2c(=O)cc(S)oc12 | > 100 µM | > 100 µM | > 100 µM | > 100 µM | > 100 µM | > 100 µM | > 100 µM | – | 50.4 µM | > 100 µM | – | – | – | – | – | – | – | – | – | –
19 | COc1ccccc1N1C(=O)/C(=C\c2ccccc2)SC1c1cc(OC)c(OC)c(OC)c1 (stereo not given) | > 100 µM | > 100 µM | > 100 µM | 71.3 µM | > 100 µM | > 100 µM | 68.9 µM | – | 33 µM | > 100 µM | – | – | – | – | – | – | – | – | – | –
20 | Nc1nc(=O)n(C2CC(O)C(CO)O2)c2nc(-c3ccc(-c4ccccc4)cc3)cnc12 (stereo not given) | > 100 µM | – | > 100 µM | 50.1 µM | 76 µM | > 100 µM | > 100 µM | > 100 µM | > 100 µM | > 100 µM | – | – | – | – | – | – | – | – | – | –
21 | O=c1[nH]nc(-c2ccccc2)c2[nH]c3c(c12)CCCc1ccccc1-3 | 10.4 µM | 23.5 µM | 36.9 µM | 52.4 µM | 33.8 µM | 33.6 µM | 58.5 µM | 31.2 µM | – | 47.4 µM | – | – | – | – | – | – | – | – | – | –
22 | COC1=C2C[C@](OC)(C#CC=CC#CC2O)CC1(C)C (stereo not given in full) | > 100 µM | > 100 µM | – | > 100 µM | > 100 µM | – | > 100 µM | > 100 µM | – | > 100 µM | – | – | – | – | – | – | – | – | – | –
23 | O=[N+]([O-])c1cnccc1-n1nnc2ccccc21 | 66.1 µM | 40.7 µM | – | – | > 75.7 µM | > 60.5 µM | – | > 100 µM | 35.8 µM | – | – | – | – | – | – | – | – | – | – | –
